In ChEMBL document CHEMBL1146847, “Design and synthesis of potent, non-peptidic inhibitors of HPTPbeta” (Bioorg Med Chem Lett, 2006):
Blank lines part the entries; values can stand above or below the compound they belong to.

Experiments:
[1] = target: Receptor-type tyrosine-protein phosphatase beta (Homo sapiens, UniProt P23467)
[2] = target: T1, Receptor-type tyrosine-protein phosphatase F (Homo sapiens, UniProt P10586); test: Inhibition of LAR2
[3] = target: T2, Tyrosine-protein phosphatase non-receptor type 1 (Homo sapiens, UniProt P18031); test: Inhibition of PTP1B
T2 sequence (P18031 whole entry): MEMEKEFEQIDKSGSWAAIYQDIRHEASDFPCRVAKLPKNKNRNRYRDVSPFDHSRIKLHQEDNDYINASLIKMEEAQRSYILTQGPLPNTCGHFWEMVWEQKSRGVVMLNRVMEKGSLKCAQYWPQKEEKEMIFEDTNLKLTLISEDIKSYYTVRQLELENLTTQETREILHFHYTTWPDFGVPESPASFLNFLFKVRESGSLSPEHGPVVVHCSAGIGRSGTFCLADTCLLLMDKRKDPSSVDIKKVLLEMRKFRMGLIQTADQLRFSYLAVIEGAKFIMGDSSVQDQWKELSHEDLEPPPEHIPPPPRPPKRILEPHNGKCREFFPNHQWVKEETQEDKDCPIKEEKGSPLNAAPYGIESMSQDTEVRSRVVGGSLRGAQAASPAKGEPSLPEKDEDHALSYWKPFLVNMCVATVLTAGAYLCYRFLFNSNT

[4] = target: T1, Receptor-type tyrosine-protein phosphatase F; test: Inhibition of LAR1
[5] = target: T3, Receptor-type tyrosine-protein phosphatase C (Homo sapiens, UniProt P08575); test: Inhibition of CD45
T3 sequence (P08575 whole entry): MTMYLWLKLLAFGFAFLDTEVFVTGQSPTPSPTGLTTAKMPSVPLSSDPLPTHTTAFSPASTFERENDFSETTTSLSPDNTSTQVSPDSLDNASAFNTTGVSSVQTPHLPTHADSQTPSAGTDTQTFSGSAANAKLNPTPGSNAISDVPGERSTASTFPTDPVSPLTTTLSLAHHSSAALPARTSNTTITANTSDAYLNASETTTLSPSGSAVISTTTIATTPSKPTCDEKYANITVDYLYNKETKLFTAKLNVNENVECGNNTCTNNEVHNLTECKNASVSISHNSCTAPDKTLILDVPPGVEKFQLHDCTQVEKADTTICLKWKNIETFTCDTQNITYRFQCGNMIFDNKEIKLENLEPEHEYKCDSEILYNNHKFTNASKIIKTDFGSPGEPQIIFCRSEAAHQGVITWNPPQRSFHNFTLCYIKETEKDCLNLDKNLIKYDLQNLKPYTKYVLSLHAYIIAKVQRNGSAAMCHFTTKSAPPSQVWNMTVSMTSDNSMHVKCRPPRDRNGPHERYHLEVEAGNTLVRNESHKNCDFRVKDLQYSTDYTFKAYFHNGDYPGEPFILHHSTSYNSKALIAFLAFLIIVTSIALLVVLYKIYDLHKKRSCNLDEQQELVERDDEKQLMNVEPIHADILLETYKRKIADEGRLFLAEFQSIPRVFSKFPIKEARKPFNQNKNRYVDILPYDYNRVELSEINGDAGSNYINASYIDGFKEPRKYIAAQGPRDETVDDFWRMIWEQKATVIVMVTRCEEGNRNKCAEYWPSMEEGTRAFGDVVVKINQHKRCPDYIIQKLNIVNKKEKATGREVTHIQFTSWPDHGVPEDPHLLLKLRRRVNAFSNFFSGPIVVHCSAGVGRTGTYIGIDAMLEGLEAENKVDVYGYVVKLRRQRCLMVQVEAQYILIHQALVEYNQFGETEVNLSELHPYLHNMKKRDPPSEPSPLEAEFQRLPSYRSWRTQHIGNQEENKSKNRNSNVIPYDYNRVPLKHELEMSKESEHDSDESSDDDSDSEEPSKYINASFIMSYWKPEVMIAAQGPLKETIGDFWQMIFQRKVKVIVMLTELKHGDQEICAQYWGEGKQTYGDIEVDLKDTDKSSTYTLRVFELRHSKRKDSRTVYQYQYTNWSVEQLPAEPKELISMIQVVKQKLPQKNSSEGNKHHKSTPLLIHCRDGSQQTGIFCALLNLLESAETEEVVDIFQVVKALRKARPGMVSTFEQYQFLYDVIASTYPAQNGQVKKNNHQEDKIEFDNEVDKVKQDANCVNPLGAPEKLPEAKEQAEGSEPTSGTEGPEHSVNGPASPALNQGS

[6] = target: Receptor-type tyrosine-protein phosphatase gamma (Homo sapiens, UniProt P23470); test: Inhibition of PTP gamma
[7] = target: T4, Tyrosine-protein phosphatase non-receptor type 2 (Homo sapiens, UniProt P17706); test: Inhibition of TCPTP38
T4 sequence (P17706 whole entry): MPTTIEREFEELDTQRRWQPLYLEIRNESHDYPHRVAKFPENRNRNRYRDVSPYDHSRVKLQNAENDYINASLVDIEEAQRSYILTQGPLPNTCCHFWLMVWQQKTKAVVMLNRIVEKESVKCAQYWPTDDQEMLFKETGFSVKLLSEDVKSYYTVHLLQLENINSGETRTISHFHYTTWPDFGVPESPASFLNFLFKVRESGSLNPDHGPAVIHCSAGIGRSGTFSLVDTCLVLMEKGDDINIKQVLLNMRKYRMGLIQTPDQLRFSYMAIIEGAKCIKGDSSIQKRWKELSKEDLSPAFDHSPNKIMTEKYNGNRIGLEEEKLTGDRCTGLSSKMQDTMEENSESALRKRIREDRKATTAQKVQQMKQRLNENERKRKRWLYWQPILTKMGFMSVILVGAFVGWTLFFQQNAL

[8] = target: Receptor-type tyrosine-protein phosphatase epsilon (Homo sapiens, UniProt P23469); test: Inhibition of HPTP epsilon
[9] = target: Receptor-type tyrosine-protein phosphatase mu (Homo sapiens, UniProt P28827); test: Inhibition of HPTP mu
[10] = target: T5, Low molecular weight phosphotyrosine protein phosphatase (Homo sapiens, UniProt P24666); test: Inhibition of HCPTPA
T5 sequence (P24666 whole entry): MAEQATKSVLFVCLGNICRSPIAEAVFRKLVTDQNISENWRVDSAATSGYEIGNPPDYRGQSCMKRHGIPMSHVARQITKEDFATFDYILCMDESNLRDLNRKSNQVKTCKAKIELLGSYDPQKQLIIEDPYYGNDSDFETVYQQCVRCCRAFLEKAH

[11] = target: T4, Tyrosine-protein phosphatase non-receptor type 2; test: Inhibition of TCPTP
[12] = target: Receptor-type tyrosine-protein phosphatase alpha (Homo sapiens, UniProt P18433); test: Inhibition HPTPA

Receptor-type tyrosine-protein phosphatase mu, sequence (P28827 whole entry): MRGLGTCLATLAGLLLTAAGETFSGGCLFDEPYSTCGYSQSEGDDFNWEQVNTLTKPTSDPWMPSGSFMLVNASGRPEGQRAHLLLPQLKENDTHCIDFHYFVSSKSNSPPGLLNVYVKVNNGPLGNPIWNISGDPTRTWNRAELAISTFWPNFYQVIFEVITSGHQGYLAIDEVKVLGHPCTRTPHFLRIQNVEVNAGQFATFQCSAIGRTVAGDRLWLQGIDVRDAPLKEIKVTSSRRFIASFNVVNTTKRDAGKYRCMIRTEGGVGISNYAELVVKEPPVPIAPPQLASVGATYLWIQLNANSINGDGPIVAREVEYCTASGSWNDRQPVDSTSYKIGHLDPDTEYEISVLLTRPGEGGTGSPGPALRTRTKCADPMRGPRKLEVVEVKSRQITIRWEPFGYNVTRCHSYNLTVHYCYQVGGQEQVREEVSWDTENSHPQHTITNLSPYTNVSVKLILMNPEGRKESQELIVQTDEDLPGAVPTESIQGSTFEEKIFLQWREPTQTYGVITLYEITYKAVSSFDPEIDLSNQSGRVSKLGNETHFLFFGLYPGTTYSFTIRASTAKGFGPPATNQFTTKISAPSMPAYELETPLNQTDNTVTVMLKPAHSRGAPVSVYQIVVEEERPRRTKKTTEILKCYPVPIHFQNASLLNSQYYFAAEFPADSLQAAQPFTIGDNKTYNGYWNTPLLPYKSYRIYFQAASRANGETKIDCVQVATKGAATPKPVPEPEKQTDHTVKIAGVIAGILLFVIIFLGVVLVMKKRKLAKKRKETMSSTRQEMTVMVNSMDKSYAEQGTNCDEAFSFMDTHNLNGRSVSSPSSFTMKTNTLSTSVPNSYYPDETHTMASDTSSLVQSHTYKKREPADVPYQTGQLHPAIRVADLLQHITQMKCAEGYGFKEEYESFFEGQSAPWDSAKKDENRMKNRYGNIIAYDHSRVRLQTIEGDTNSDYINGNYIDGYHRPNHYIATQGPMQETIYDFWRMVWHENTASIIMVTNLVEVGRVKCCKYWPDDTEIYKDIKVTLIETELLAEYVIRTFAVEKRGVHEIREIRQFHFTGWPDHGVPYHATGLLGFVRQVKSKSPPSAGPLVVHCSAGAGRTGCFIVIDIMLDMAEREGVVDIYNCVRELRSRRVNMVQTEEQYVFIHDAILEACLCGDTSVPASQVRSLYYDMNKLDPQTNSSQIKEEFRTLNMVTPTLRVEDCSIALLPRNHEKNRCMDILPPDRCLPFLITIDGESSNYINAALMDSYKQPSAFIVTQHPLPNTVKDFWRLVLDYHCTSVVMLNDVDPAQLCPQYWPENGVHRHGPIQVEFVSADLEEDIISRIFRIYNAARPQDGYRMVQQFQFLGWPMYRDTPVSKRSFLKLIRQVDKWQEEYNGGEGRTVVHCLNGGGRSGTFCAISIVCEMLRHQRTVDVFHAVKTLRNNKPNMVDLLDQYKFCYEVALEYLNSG
Receptor-type tyrosine-protein phosphatase beta, sequence (P23467 whole entry): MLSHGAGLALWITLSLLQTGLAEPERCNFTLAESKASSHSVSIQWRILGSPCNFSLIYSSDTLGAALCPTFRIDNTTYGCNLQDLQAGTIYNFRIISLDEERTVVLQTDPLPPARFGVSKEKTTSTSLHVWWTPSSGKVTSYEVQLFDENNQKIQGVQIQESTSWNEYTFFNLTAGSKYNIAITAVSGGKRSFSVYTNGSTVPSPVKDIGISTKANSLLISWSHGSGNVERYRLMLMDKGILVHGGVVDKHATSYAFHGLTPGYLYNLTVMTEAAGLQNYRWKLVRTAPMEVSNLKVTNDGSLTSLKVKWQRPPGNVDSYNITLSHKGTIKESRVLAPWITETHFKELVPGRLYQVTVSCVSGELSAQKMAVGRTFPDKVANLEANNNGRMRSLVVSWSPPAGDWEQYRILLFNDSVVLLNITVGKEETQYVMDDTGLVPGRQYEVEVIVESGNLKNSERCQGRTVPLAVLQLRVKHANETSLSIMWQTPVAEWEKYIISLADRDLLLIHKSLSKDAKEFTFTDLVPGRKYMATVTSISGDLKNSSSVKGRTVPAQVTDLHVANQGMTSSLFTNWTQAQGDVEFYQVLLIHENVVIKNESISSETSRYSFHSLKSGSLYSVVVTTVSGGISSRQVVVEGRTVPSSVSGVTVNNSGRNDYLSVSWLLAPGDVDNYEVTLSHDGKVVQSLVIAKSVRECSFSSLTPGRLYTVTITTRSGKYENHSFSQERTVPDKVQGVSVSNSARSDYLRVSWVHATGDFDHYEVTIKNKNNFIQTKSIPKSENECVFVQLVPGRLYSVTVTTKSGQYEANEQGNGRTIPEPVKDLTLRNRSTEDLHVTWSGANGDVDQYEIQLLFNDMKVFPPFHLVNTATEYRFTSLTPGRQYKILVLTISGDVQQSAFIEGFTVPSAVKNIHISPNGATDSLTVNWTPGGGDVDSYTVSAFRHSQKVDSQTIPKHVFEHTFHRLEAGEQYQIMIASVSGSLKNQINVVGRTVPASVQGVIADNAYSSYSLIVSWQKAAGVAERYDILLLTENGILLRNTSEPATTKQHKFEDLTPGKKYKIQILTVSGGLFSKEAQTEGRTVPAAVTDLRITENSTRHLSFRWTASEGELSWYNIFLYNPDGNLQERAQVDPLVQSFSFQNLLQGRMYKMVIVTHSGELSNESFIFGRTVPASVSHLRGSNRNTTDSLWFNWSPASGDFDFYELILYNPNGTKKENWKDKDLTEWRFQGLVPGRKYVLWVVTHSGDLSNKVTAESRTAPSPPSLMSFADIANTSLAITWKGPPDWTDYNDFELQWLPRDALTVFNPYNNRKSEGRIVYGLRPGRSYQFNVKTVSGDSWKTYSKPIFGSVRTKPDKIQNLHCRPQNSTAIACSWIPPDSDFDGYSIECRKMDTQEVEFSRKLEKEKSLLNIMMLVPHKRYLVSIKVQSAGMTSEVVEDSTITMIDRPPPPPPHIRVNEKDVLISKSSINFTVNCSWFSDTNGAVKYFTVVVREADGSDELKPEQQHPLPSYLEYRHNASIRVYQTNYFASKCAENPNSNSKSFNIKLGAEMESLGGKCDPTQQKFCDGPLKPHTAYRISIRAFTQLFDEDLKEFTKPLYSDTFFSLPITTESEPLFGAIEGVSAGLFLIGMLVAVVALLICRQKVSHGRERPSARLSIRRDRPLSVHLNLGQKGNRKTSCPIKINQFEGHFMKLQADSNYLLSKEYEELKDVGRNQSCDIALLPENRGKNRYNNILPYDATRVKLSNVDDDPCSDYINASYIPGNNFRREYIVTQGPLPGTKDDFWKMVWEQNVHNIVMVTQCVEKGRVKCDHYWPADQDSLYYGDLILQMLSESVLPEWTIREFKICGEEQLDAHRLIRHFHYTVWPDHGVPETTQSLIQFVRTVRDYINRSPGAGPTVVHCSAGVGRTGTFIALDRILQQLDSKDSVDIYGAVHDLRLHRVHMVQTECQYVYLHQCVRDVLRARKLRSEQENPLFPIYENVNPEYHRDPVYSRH
Receptor-type tyrosine-protein phosphatase gamma, sequence (P23470 whole entry): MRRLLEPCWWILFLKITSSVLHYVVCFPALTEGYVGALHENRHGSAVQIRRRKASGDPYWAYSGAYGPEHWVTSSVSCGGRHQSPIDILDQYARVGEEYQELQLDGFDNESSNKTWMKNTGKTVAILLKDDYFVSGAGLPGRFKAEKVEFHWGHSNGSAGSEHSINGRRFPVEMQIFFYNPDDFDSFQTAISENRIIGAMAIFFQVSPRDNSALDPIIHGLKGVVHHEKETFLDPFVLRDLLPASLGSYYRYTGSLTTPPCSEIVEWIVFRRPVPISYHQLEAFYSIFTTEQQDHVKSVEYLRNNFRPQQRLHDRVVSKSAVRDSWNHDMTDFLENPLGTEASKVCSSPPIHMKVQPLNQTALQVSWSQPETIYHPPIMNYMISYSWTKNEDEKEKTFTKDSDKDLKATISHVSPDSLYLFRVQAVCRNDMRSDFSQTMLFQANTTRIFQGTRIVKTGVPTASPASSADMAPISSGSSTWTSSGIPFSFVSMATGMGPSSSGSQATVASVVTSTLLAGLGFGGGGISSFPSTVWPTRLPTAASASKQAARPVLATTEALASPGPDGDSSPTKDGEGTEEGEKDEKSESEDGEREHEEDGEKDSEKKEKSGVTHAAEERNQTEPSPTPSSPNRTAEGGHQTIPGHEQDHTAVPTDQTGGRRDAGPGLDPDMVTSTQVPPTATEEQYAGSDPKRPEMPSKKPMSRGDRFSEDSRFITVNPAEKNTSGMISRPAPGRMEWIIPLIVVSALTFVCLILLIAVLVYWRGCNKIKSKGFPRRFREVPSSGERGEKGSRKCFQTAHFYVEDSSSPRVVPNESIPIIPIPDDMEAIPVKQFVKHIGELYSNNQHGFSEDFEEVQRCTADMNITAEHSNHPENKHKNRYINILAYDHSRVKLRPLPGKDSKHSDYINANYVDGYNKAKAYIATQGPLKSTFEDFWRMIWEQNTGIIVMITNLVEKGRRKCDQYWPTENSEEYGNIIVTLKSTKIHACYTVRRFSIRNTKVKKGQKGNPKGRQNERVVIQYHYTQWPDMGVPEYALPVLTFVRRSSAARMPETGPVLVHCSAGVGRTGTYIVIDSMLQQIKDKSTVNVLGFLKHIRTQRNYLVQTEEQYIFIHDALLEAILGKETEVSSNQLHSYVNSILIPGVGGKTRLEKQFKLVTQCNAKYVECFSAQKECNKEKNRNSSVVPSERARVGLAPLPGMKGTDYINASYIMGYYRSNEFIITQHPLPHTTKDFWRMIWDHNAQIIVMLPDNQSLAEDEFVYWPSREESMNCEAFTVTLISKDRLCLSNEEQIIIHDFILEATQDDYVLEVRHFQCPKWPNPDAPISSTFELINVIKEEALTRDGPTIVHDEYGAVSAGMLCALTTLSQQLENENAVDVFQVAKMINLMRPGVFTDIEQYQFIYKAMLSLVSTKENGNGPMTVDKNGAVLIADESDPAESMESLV

SMILES: COC(=O)C(Cc1ccc(NS(=O)(=O)O)cc1)C(=O)OC
IC50 [1]: 1000 nM

SMILES: COC(=O)C(Cc1ccc(NS(=O)(=O)O)cc1)(Cc1ccc(C(=O)O)cc1)C(=O)OC
IC50 [1]: 140 nM

SMILES: COC(=O)C(Cc1ccc(NS(=O)(=O)O)cc1)(Cc1cccc(S(N)(=O)=O)c1)C(=O)OC
IC50 [1]: 300 nM

SMILES: COC(=O)C(CCCS(=O)(=O)c1ccccc1)(Cc1ccc(NS(=O)(=O)O)cc1)C(=O)OC
IC50 [1]: 150 nM

SMILES: COc1cccc(CC(Cc2ccc(NS(=O)(=O)O)cc2)(c2nc(C)no2)c2nc(C)no2)c1
IC50 [1]: 230 nM

SMILES: CCOC(=O)C(Cc1ccc(NS(=O)(=O)O)cc1)(NC(=O)OCc1ccccc1)C(=O)OC (configuration not stated)
IC50 [2]: 472000 nM
IC50 [3]: 12800 nM
IC50 [4]: 227000 nM
IC50 [5]: 280000 nM
IC50 [6]: 196000 nM
IC50 [7]: 78000 nM
IC50 [8]: > 500000 nM
IC50 [9]: > 500000 nM
IC50 [1]: 400 nM
IC50 [10]: 82200 nM

SMILES: COC(=O)C(CCCSc1nnnn1-c1ccccc1)(Cc1ccc(NS(=O)(=O)O)cc1)C(=O)OC
IC50 [1]: 200 nM

SMILES: COC(=O)C(Cc1ccc(NS(=O)(=O)O)cc1)(Cc1ccc(OC)cc1)C(=O)OC
IC50 [1]: 390 nM

SMILES: COC(=O)C(Cc1ccc(NS(=O)(=O)O)cc1)(Cc1cccc(OC)c1)C(=O)OC
IC50 [1]: 330 nM

SMILES: COC(=O)C(Cc1ccc(NS(=O)(=O)O)cc1)(Cc1cccc(NS(=O)(=O)O)c1)C(=O)OC
IC50 [1]: 100 nM

SMILES: COC(=O)CCCC(Cc1ccc(NS(=O)(=O)O)cc1)(C(=O)OC)C(=O)OC
IC50 [1]: 380 nM

SMILES: COC(=O)C(CCCS(=O)(=O)c1nnnn1-c1ccccc1)(Cc1ccc(NS(=O)(=O)O)cc1)C(=O)OC
IC50 [1]: 80 nM

SMILES: CCOC(=O)CC(Cc1ccc(NS(=O)(=O)O)cc1)(C(=O)OC)C(=O)OC
IC50 [2]: > 500000 nM
IC50 [3]: 16200 nM
IC50 [4]: 288000 nM
IC50 [5]: 126000 nM
IC50 [6]: 200000 nM
IC50 [7]: 109000 nM
IC50 [8]: > 500000 nM
IC50 [9]: > 500000 nM
IC50 [1]: 230 nM
IC50 [10]: 4800 nM

SMILES: COC(=O)C(Cc1ccccc1)(Cc1ccc(NS(=O)(=O)O)cc1)C(=O)OC
IC50 [3]: 6100 nM
IC50 [11]: 19400 nM
IC50 [12]: 900 nM

SMILES: COC(=O)C(CCCc1ccccc1)(Cc1ccc(NS(=O)(=O)O)cc1)C(=O)OC
IC50 [2]: > 500000 nM
IC50 [3]: 2300 nM
IC50 [4]: 409000 nM
IC50 [5]: 29000 nM
IC50 [6]: 93000 nM
IC50 [7]: 15300 nM
IC50 [8]: > 500000 nM
IC50 [9]: > 500000 nM
IC50 [1]: 150 nM
IC50 [10]: 7700 nM

SMILES: COC(=O)C(COCc1ccccc1)(Cc1ccc(NS(=O)(=O)O)cc1)C(=O)OC
IC50 [1]: 270 nM

SMILES: Cc1noc(C(CCCc2ccccc2)(Cc2ccc(NS(=O)(=O)O)cc2)c2nc(C)no2)n1
IC50 [1]: 70 nM

SMILES: COC(=O)c1ccc(CC(Cc2ccc(NS(=O)(=O)O)cc2)(C(=O)OC)C(=O)OC)cc1
IC50 [1]: 410 nM

Now from value to compound:

IC50 [1]: 340 nM
SMILES: COc1ccc(CC(Cc2ccc(NS(=O)(=O)O)cc2)(c2nc(C)no2)c2nc(C)no2)cc1

IC50 [1]: 450 nM
SMILES: CCOC(=O)C(Cc1ccc(NS(=O)(=O)O)cc1)(NC(=O)OC(C)(C)C)C(=O)OC (configuration not stated)

IC50 [1]: 570 nM
SMILES: COC(=O)C(Cc1ccncc1)(Cc1ccc(NS(=O)(=O)O)cc1)C(=O)OC

IC50 [1]: 90 nM
SMILES: CCOC(=O)C(CCNC(=O)OC(C)(C)C)(Cc1ccc(NS(=O)(=O)O)cc1)C(=O)OC (configuration not stated)

IC50 [1]: 80 nM
SMILES: Cc1noc(C(Cc2ccc(NS(=O)(=O)O)cc2)(Cc2ccc(NS(=O)(=O)O)cc2)c2nc(C)no2)n1

IC50 [1]: 60 nM
SMILES: COC(=O)C(Cc1ccc(NS(=O)(=O)O)cc1)(Cc1ccc(NS(=O)(=O)O)cc1)C(=O)OC

IC50 [1]: 420 nM
SMILES: COC(=O)C(CCCS(C)(=O)=O)(Cc1ccc(NS(=O)(=O)O)cc1)C(=O)OC

IC50 [1]: 430 nM
SMILES: COC(=O)C(Cc1ccc(NS(=O)(=O)O)cc1)(Cc1ccc(S(N)(=O)=O)cc1)C(=O)OC

IC50 [1]: 290 nM
SMILES: COC(=O)c1cccc(CC(Cc2ccc(NS(=O)(=O)O)cc2)(C(=O)OC)C(=O)OC)c1

IC50 [1]: 210 nM
SMILES: Cc1noc(C(Cc2ccc(NS(=O)(=O)O)cc2)(Cc2cccc(C#N)c2)c2nc(C)no2)n1
